Tested on: gastric acid secretion
Test: gastric acid secretion inhibiting effect, method of Shay (pylorus bound, free acid titrated)
Type: in vivo, Rats (Wistar breed)
Settings: given 3 hours before the operation, free acid determined 4 hours after the operation, inhibition in relation to the control
Protocol: Rats of both sexes (Wistar breed, weighing 180-240 g) were fastened for 48 hours. On the day of the test the pylorus of the animals was bound under ether narcosis. The test compounds were administered orally 3 hours before the operation. 4 hours after the operation the animals were anaesthetized and the stomach was removed, the content thereof was centrifuged and the amount of the free acid was determined by titration, in the presence of Töpfer reagent. The inhibition in relation to the control is calculated in percentage.

## Clc1c2c(nc3nc(N4CCOCC4)nn13)CCCC2 [Example 12, 5-Chloro-2-morpholino-6,7,8,9-tetrahydro-1,2,4-triazolo[5,1-b]quinazoline]
Dose 200 mg/kg peroral
  Inhibition %: 85%

## CSc1nc2nc3c(c(Cl)n2n1)CCC3 [Example 2, 5-Chloro-2-methylthio-6,7-dihydro-8H-cyclopenta[d]-1,2,4-triazolo[1,5-a]pyrimidine]
Dose 30 mg/kg peroral
  Inhibition %: 73%

## COc1cc(C(=S)N2CCOCC2)cc(OC)c1OC [Trithiozine, 3,4,5-Trimethoxythio-benzoic acid morpholide, reference compound]
Dose 400 mg/kg peroral
  Inhibition %: 63%

## CSc1nc2nc3c(c(Cl)n2n1)CCCC3 [Example 6, 5-Chloro-2-methylthio-6,7,8,9-tetrahydro-1,2,4-triazolo[5,1-b]quinazoline]
Dose 60 mg/kg peroral
  Inhibition %: 100%
